These results are taken from publication PMC7076672, “Improving the Oral Bioavailability of an Anti-Glioma Prodrug CAT3 Using Novel Solid Lipid Nanoparticles Containing Oleic Acid-CAT3 Conjugates” (Pharmaceutics, 2020).

The nature of data set [1]: Transepithelial transport study. The data set is classed as in vitro ADME, canine. Conditions: dog, MDCK-MDR1, 37 °C, n = 3. The method, then:
The permeabilities of CAT3 and OA-CAT3-SLN were investigated on an MDCK-MDR1 cell monolayer. MDCK-MDR1 cells were seeded onto 12-well transwell® filter inserts (pore size 0.4 μm, surface area 1.12 cm^2; Corning Incorporated, Corning, NY, USA) at a density of 2 × 10^5 cells/well. The culture medium was changed every 24 h for seven days, and the cell monolayers with a transepithelial electrical resistance (TEER) above 110 Ω·cm^2 were used for the transport experiments. Prior to performing the TEER test, the culture medium was removed, and the monolayer was pre-incubated with 0.5 mL of Hanks’ balanced salt solution (HBSS) for 20 min at 37 °C. […]
To investigate the mechanism of cellular internalization of OA-CAT3-SLN, various specific endocytic inhibitors were evaluated in the uptake study. […]
The amount of CAT3 or OA-CAT3-SLN that permeated that through the monolayer was determined using the liquid chromatography-mass spectrometry (LC-MS/MS) system. The apparent permeability coefficient (Papp) of CAT3 or OA-CAT3-SLN was calculated according to the following equation: Papp = dQ/dt × 1/(A × C0), where dQ/dt indicates the linear appearance rate of mass at the BL side (μmol/s), C0 is the initial concentration of CAT3 or OA-CAT3-SLN on the AP side (μmol/mL), and A is the surface area of the monolayer (cm^2).

The test system of another data set is C6 glioma cells. Kind of data set: In vitro cytotoxicity analysis (MTT assay). The data set is classed as cell-based. The conditions noted are these: 0.64 ng/mL. The method, then: Cytotoxicity of the CAT3 suspension, OA-CAT3-SLN, and blank SLN against the C6 brain glioma cell line was measured by 3-(4,5-dimethylthiazol-2-yl)-2,5 diphenyltetrazolium bromide (MTT) assay. Briefly, the cells were seeded into 96-well plates at a cell density of 2 × 10^4 cells/mL (100 μL/well). After 24 h of incubation, the cells were further incubated for 24, 48, and 72 h in fresh DMEM complete medium containing 0.64 ng/mL CAT3 suspension, OA-CAT3-SLN, or the blank SLN, respectively. At the above-mentioned time points, the culture medium was replaced by the MTT solution (0.5 mg/mL, 200 μL/well), followed by incubation for further 4 h. The supernatant was removed and 100 μL of DMSO solution was added to the wells. The absorbance values of each well were measured at 570 nm using a microplate reader (Synergy H1 Hybrid Multi-Mode Microplate Reader, BioTek, Winooski, VT, USA).

The nature of data set [2]: In vitro release under simulated gastrointestinal conditions (dialysis bag). Type of data set: physicochemical. Conditions: 0.1% SDS medium, 37 °C. The method, then: Drug release from SLN was monitored in vitro under simulated gastrointestinal conditions. The tests were performed by placing 2 mL SLN samples (containing 2 mg CAT3) into 400 mL of the dissolution medium maintained at 37 °C. The dissolution media contained 0.1% SDS (w/v) to meet sink conditions. Preswollen 8–10 kDa MWCO dialysis bags (Sigma-Aldrich, Madrid, Spain), which contained 5 mL of the blank SDS solution with the same concentration, were placed into the dissolution flask (n = 3). The release behavior of CAT3 was compared under the same condition by placing 5 mg CAT3 powder into the 1000 mL media. The samples (1 mL) were withdrawn at predetermined time points from the dialysis bags and replaced with the same amount of fresh medium maintained at 37 °C. The samples were centrifuged for 5 min at 12,000 rpm, and the resultant supernatants were quantified for drug content. The samples were protected from light during the experiments. The DDsolver software was used to evaluate the drug-release kinetics. An Excel worksheet (Microsoft Corporation, Redmond, WA, USA) was used to control the computing method for comparison with the results obtained using the DDSolver program. According to the example format for each built-in module of the DDSolver, all data were entered into Excel. The relevant parameters were calculated following the step-by-step equations utilizing an Excel spreadsheet.

The next data set deals with P-gp. More on the design: method as in PMID 25936609, PMID 35547992. Conditions: cited from earlier work.
Another data set concerns human cell lines. Conditions: versus pro-drug CAT3; cited from earlier work.

Like-named read-outs stand apart in the source and are kept apart here.

With `COc1cc2c3c(c4ccc(OC(=O)C(C)(C)C)cc4c2cc1OC)C[C@@H]1CCCN1C3` [CAT3, 13a-(S)-3-pivaloyloxyl-6,7-dimethoxyphenanthro(9,10-b)-indolizidine], the Papp A→B at 2 h, 100 ng/mL in data set [1] stood at 0.106 ± 0.0289 ×10⁻⁶ cm/s. Moreover, the viability at 0.00064 µg/mL in the data set with C6 glioma cells (24 h, n = 3, read-out: cell viability 24 h) was determined as 81.2%; with C6 glioma cells (48 h, n = 3, read-out: cell viability 48 h), 46.2%; in the data set with C6 glioma cells (72 h, n = 3, read-out: cell viability 72 h), 16.5%. Further, in data set [2], the “CAT3 released in the first 24 h” value is listed as “more than 80%”.

With `COc1cc2c3c(c4ccc(O)cc4c2cc1OC)C[C@@H]1CCCN1C3` [PF403, 13a(S)-3-hydroxyl-6,7-dimethoxyphenanthro(9,10-b)-indolizidine], the P-gp substrate result in the data set with P-gp is recorded as “substrate of P-gp”. For the same compound, the “in vitro antitumor activity, times greater than CAT3” value in the data set on human cell lines is on record as “about 1000 times”.
